# Key:
# MAP4K5 = MAP4K5 (Homo sapiens, UniProt Q9Y4K4); assay: kinase panel; type: biochemical
# MAPK1 = MAPK1 (Homo sapiens, UniProt P28482); assay: kinase panel; type: biochemical
# RON = RON (Homo sapiens, UniProt Q04912); assay: kinase panel; type: biochemical
# GRK5 = GRK5 (Homo sapiens, UniProt P34947); assay: kinase panel; type: biochemical
# PDGFR-ALPHA = PDGFR-ALPHA (Homo sapiens, UniProt P16234); assay: kinase panel; type: biochemical
# RSK2 = RSK2 (Homo sapiens, UniProt P51812); assay: kinase panel; type: biochemical
# CLK2 = CLK2 (Homo sapiens, UniProt P49760); assay: kinase panel; type: biochemical
# MARK3 = MARK3 (Homo sapiens, UniProt P27448); assay: kinase panel; type: biochemical
# AMP-A2B1G1 = AMP-A2B1G1 (Homo sapiens, UniProt P54646); assay: kinase panel; type: biochemical
# CLK4 = CLK4 (Homo sapiens, UniProt Q9HAZ1); assay: kinase panel; type: biochemical
# Chain of CLK4 (Q9HAZ1 whole entry): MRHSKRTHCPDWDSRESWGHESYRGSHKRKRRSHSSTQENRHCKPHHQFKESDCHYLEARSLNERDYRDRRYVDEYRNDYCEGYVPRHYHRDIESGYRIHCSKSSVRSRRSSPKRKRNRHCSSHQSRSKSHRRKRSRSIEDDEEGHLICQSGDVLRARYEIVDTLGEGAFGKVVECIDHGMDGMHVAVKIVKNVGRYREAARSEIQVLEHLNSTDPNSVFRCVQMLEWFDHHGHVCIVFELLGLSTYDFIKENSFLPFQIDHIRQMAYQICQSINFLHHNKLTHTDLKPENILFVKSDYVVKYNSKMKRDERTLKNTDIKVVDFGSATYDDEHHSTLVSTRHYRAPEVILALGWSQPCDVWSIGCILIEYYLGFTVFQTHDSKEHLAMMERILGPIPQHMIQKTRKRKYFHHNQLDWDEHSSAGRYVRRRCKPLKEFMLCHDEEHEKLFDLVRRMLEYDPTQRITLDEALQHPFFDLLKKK
# CRAF = CRAF (Homo sapiens, UniProt P04049); assay: kinase panel; type: biochemical
# MELK = MELK (Homo sapiens, UniProt Q14680); assay: kinase panel; type: biochemical
# SGK3 = SGK3 (Homo sapiens, UniProt Q96BR1); assay: kinase panel; type: biochemical
# AURORA-C = AURORA-C (Homo sapiens, UniProt Q9UQB9); assay: kinase panel; type: biochemical
# DDR2 = DDR2 (Homo sapiens, UniProt Q16832); assay: kinase panel; type: biochemical
# BRAF = BRAF (Homo sapiens, UniProt P15056); assay: kinase panel; type: biochemical
# SRMS = SRMS (Homo sapiens, UniProt Q9H3Y6); assay: kinase panel; type: biochemical
# EGFR = EGFR (Homo sapiens, UniProt P00533); assay: kinase panel; type: biochemical
# SRPK2 = SRPK2 (Homo sapiens, UniProt P78362); assay: kinase panel; type: biochemical
# IRAK1 = IRAK1 (Homo sapiens, UniProt P51617); assay: kinase panel; type: biochemical
# SYK = SYK (Homo sapiens, UniProt P43405); assay: kinase panel; type: biochemical
# MST4 = MST4 (Homo sapiens, UniProt Q9P289); assay: kinase panel; type: biochemical
# PKC-IOTA = PKC-IOTA (Homo sapiens, UniProt P41743); assay: kinase panel; type: biochemical
# TAOK3 = TAOK3 (Homo sapiens, UniProt Q9H2K8); assay: kinase panel; type: biochemical
# NEK3 = NEK3 (Homo sapiens, UniProt P51956); assay: kinase panel; type: biochemical
# Chain of NEK3 (P51956 whole entry): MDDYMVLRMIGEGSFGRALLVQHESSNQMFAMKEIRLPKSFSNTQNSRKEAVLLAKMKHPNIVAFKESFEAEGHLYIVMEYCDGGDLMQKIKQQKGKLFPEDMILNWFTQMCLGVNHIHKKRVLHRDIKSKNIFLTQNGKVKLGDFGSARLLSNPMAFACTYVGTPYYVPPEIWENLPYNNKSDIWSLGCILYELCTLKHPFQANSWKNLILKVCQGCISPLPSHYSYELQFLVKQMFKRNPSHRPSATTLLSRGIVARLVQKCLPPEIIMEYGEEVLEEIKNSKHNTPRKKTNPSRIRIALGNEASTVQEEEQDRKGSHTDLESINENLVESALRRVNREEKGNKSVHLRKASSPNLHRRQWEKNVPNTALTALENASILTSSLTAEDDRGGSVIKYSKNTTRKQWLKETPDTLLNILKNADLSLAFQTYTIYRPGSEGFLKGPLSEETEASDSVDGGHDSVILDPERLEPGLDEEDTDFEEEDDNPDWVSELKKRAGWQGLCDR
# KDR = KDR (Homo sapiens, UniProt P35968); assay: kinase panel; type: biochemical
# NEK6 = NEK6 (Homo sapiens, UniProt Q9HC98); assay: kinase panel; type: biochemical
# CDK2-CYCLINE = CDK2-CYCLINE (Homo sapiens, UniProt P24941); assay: kinase panel; type: biochemical
# CDK3-CYCLINE = CDK3-CYCLINE (Homo sapiens, UniProt Q00526); assay: kinase panel; type: biochemical
# P38-ALPHA = P38-ALPHA (Homo sapiens, UniProt Q16539); assay: kinase panel; type: biochemical
# PRKD2 = PRKD2 (Homo sapiens, UniProt Q9BZL6); assay: kinase panel; type: biochemical
# LIMK1 = LIMK1 (Homo sapiens, UniProt P53667); assay: kinase panel; type: biochemical
# P38-BETA = P38-BETA (Homo sapiens, UniProt Q15759); assay: kinase panel; type: biochemical
# Chain of P38-BETA (Q15759 whole entry): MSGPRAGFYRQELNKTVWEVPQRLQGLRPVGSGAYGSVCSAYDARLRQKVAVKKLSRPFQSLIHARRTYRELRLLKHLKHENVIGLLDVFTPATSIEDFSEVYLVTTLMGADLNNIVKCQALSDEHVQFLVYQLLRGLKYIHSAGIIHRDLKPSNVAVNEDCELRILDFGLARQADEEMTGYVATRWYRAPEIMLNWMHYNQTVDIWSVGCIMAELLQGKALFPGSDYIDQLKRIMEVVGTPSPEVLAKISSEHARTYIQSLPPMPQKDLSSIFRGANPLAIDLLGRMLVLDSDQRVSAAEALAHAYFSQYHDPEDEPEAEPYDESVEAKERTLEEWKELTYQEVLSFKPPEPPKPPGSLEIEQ
# PRKD3 = PRKD3 (Homo sapiens, UniProt O94806); assay: kinase panel; type: biochemical
# LTK = LTK (Homo sapiens, UniProt P29376); assay: kinase panel; type: biochemical
# Chain of LTK (P29376 17-864): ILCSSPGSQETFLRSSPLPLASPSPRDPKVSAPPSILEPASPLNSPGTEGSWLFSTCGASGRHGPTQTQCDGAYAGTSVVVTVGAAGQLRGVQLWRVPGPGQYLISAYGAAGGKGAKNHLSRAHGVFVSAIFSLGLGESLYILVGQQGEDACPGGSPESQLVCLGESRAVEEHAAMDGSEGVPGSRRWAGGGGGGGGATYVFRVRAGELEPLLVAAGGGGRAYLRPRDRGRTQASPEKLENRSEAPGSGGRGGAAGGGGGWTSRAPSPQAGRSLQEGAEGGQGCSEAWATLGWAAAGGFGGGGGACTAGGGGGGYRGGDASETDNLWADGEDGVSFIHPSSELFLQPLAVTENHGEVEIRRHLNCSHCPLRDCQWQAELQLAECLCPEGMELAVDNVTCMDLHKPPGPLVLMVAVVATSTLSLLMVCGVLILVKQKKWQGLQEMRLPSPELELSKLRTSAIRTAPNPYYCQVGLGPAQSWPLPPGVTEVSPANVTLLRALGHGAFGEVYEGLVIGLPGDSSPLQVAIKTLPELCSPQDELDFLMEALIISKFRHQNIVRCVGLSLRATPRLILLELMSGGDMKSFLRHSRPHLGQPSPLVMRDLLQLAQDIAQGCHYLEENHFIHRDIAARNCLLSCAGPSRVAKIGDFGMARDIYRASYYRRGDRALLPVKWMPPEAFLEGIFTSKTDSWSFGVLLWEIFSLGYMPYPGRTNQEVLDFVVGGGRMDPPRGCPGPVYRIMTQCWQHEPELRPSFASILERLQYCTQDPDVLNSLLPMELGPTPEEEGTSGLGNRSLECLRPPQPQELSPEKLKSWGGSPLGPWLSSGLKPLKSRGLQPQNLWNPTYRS
# FLT-1 = FLT-1 (Homo sapiens, UniProt P17948); assay: kinase panel; type: biochemical
# Chain of FLT-1 (P17948 27-1338): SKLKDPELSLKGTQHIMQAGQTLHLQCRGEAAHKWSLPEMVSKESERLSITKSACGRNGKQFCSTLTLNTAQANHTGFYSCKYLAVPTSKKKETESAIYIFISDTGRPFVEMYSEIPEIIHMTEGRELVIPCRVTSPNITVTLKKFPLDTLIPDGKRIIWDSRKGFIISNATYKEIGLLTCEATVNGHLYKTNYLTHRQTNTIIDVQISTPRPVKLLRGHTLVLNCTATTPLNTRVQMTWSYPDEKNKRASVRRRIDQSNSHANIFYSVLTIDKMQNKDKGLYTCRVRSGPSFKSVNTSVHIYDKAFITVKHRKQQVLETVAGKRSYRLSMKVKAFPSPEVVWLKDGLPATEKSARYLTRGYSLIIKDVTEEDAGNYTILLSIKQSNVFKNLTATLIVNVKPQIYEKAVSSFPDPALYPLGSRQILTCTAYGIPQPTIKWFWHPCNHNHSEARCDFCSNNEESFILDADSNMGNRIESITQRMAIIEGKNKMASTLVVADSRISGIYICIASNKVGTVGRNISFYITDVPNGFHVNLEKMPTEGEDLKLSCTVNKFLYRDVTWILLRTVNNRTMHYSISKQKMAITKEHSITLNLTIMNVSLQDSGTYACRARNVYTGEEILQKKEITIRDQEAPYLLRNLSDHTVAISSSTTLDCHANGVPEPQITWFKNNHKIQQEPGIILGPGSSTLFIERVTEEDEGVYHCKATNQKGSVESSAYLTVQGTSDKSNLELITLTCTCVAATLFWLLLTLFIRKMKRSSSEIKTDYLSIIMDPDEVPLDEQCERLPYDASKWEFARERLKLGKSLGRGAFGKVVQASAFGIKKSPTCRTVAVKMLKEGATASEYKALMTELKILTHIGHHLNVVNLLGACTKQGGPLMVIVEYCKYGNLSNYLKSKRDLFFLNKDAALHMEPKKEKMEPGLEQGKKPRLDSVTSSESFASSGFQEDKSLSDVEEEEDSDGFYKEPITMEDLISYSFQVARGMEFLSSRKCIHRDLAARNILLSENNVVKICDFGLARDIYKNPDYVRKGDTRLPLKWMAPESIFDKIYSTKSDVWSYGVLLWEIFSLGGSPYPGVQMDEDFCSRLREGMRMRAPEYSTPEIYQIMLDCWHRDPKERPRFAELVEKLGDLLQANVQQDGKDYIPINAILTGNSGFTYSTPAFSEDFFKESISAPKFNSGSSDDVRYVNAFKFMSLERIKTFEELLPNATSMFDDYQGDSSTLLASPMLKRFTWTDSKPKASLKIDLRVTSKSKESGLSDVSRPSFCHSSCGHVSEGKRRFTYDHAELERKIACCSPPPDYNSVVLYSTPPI
# LYNB = LYNB (Homo sapiens, UniProt P07948); assay: kinase panel; type: biochemical
# PYK2 = PYK2 (Homo sapiens, UniProt Q14289); assay: kinase panel; type: biochemical
# FLT-3 = FLT-3 (Homo sapiens, UniProt P36888); assay: kinase panel; type: biochemical
# Chain of FLT-3 (P36888 27-993): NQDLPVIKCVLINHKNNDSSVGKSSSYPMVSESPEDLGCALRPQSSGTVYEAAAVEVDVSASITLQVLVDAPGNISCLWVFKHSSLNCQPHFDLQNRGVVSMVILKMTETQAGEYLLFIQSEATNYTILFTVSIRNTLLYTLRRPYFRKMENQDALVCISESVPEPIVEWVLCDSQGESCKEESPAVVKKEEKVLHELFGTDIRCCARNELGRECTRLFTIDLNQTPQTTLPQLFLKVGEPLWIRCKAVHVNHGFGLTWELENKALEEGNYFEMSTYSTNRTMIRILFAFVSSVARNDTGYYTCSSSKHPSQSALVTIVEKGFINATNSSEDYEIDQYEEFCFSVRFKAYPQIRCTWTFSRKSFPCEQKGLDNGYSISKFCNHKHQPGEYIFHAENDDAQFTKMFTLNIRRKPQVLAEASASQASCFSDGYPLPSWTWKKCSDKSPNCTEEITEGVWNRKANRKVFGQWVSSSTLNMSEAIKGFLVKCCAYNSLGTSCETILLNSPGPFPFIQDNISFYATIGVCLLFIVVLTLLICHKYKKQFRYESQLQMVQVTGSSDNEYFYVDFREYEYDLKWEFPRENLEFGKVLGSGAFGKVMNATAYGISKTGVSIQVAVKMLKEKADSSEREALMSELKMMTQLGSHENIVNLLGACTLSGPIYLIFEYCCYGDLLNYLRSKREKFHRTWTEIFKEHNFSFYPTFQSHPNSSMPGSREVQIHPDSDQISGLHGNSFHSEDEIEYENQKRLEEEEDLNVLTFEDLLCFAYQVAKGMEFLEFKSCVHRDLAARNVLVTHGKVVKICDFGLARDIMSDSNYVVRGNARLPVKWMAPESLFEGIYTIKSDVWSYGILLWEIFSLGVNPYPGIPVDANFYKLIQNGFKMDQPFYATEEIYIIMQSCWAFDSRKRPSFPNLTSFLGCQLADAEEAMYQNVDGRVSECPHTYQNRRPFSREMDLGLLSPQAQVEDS
# PAK3 = PAK3 (Homo sapiens, UniProt O75914); assay: kinase panel; type: biochemical
# Alpha1A adrenergic = Alpha1A adrenergic (Homo sapiens, UniProt P35348); assay: Alpha1A adrenergic calcium flux assay; type: cell-based
# H1 receptor = H1 receptor (Homo sapiens, UniProt P35367); assay: H1 receptor calcium assay; type: cell-based
# [1] = biological target: Melanocortin MC3 receptor (Homo sapiens, UniProt P41968); assay: Melanocortin MC3 receptor binding assay
# [2] = Mouse pharmacokinetic studies; type: in vivo; details: 20 mg/kg
# [3] = tested on: panel of 250 protein kinases; assay: Profiling against a panel of 250 protein kinases; type: biochemical; details: 1 μM EAI045
# Chain of GRK5 (P34947 whole entry): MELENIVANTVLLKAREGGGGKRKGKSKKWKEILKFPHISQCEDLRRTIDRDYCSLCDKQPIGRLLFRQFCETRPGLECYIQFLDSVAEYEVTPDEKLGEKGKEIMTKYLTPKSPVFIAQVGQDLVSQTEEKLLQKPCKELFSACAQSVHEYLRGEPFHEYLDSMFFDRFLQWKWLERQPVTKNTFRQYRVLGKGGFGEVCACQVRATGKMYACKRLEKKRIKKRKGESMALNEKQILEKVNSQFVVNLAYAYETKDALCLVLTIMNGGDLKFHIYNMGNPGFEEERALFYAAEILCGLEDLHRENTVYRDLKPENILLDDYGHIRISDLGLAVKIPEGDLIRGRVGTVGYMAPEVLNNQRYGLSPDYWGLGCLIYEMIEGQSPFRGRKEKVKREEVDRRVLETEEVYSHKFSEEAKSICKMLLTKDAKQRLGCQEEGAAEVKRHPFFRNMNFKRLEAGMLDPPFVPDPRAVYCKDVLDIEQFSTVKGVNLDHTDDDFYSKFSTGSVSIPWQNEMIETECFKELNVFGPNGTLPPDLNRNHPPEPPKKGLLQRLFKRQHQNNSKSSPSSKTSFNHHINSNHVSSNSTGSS
structure (smiles),measurement,setting,value
"O=C(Nc1nccs1)C(c1cc(F)ccc1O)N1Cc2ccccc2C1=O (stereo not shown) [EAI045, 2-(5-fluoro-2-hydroxyphenyl)-2-(1-oxo-2,3-dihydro-1H-isoindol-2-yl)-N-(1,3-thiazol-2-yl)acetamide]",inhibition at 1 µM,MAP4K5,13%
same,inhibition at 1 µM,MAPK1,0%
same,inhibition at 1 µM,RON,0%
same,inhibition at 1 µM,GRK5,0%
same,inhibition at 1 µM,PDGFR-ALPHA,0%
same,inhibition at 1 µM,RSK2,0%
same,inhibition at 1 µM,CLK2,1%
same,inhibition at 1 µM,MARK3,0%
same,inhibition at 1 µM,AMP-A2B1G1,0%
same,inhibition at 1 µM,CLK4,0%
same,inhibition at 1 µM,CRAF,0%
same,inhibition at 1 µM,MELK,0%
same,inhibition at 1 µM,SGK3,0%
same,inhibition at 1 µM,AURORA-C,0%
same,inhibition at 1 µM,DDR2,4%
same,inhibition at 1 µM,BRAF,0%
same,inhibition at 1 µM,SRMS,0%
same,inhibition at 1 µM,EGFR,7%
same,inhibition at 1 µM,SRPK2,10%
same,inhibition at 1 µM,IRAK1,4%
same,inhibition at 1 µM,SYK,0%
same,inhibition at 1 µM,MST4,0%
same,inhibition at 1 µM,PKC-IOTA,0%
same,inhibition at 1 µM,TAOK3,0%
same,inhibition at 1 µM,NEK3,0%
same,inhibition at 1 µM,KDR,0%
same,inhibition at 1 µM,NEK6,0%
same,inhibition at 1 µM,CDK2-CYCLINE,0%
same,inhibition at 1 µM,CDK3-CYCLINE,0%
same,inhibition at 1 µM,P38-ALPHA,0%
same,inhibition at 1 µM,PRKD2,2%
same,inhibition at 1 µM,LIMK1,0%
same,inhibition at 1 µM,P38-BETA,0%
same,inhibition at 1 µM,PRKD3,0%
same,inhibition at 1 µM,LTK,1%
same,inhibition at 1 µM,FLT-1,8%
same,inhibition at 1 µM,LYNB,3%
same,inhibition at 1 µM,PYK2,4%
same,inhibition at 1 µM,FLT-3,0%
same,inhibition at 1 µM,PAK3,0%
same,IC50,Alpha1A adrenergic,> 30 µM
same,IC50,H1 receptor,> 30 µM
same,IC50,[1],> 30 µM
same,maximal plasma concentration,[2],0.57 µM
same,half-life,"[2]; plasma, oral",2.15 h
same,inhibition of other kinases in the panel,[3],≤ 20%

# From article PMC4929832 (Nature, 2016)
